According to patent publication US20260200982A1, “HER RECEPTOR DERIVED PEPTIDES AND METHODS OF USE THEREOF” (Ramot at Tel-Aviv University Ltd., priority 2022, published 2026):
The star is where a group is joined. Myristoyl = CCCCCCCCCCCCCC(=O)*

Experiments:
[1] = system: LNCaP prostate cancer cells; assay: Methylene blue viability assay, LNCaP; format: cell-based, human; settings: 72 hours, FIGS. 4B and 4C, read-out: IC50 (cell viability)
Source text: (§1) Cell lines—Human breast cancer cell lines SKBR3 [Peles E et al. EMBO J. (1993) 12(3):961-71] and MCF7 [Faigenbloom L et al., Mol Syst Biol. (2015) 11(12):845] and human glioblastoma U87 [Goldberg L et al. Cancer Res. (2006) 66(24):11709-17] cell line, as well as Rat-1 fibroblast cells and H-Ras-transformed Rat-1 cells (EJ cells) [Marom M et al. J Biol Chem. (1995) 270(38):22263-70] and human Panc-1 and MIA PaCa-2 pancreatic cell lines (Rak R et al. Oncoscience. 2014 1(1):39-48; Weisz B et al. Oncogene (1999) 18, 2579±2588) were all grown in Dulbecco's modified Eagle's medium (DMEM; Biological Industries, Beithaemek, Israel). Human colorectal cancer cell lines DLD-1 (ATTC Cat No. CCL-221), HCT-116 (ATTC Cat No. CCL-247) and LNCaP prostate cancer cells were grown in Roswell Park Memorial Institute 1640 (RPMI 1640) medium and McCoy's 5A media, respectively (Sigma-Aldrich). All media were supplemented with antibiotics and 10% heat-inactivated fetal bovine serum (FBS; Gibco). Human breast cell line MCF10A [Bott A et al. Oncotarget. […]
(§2) Methylene blue viability assay—Cells were plated in 96-wells plates at cell densities of 1.5×10^3 (EJ, DLD-1), 3×10^3 (Rat-1, HCT-116, U87), 5×10^3 (SKBR3, MCF7) and 6×10^3 (MCF10A) cells/well. […] IC-50 values were calculated using a non-linear regression model (logarithmic inhibitor vs. normalized response-variable slope) with the GraphPad Prism 6 software.

[2] = system: Rat-1 fibroblast cells; assay: Methylene blue viability assay, Rat-1; format: cell-based; settings: FIG. 4C
Source text: as §1, §2

[3] = system: Panc-1 cells; assay: Colony formation assay, Panc-1; format: cell-based, human; settings: 8 μM, 72 hours, FIG. 8
Experimental: (§3) Colony formation assay—Cells were plated onto 12-well plate (6×10^4 cells/well) and treated with either PBS or myr-NLS at the IC50 concentration for 3 days. Cells were collected and replated in 10-cm plates (at 3 dilutions of 1:10, 1:20 and 1:40). After 7-14 days when visible and yet separated colonies were formed, the cells were fixed with 0.1% acetic acid in PBS, and stained with 0.4% crystal violet in 0.1% acetic acid. Total colonies area was calculated using the ImageJ program.
(§4) In order to test the effect of myr-NLS on cell tumorigenicity, a colony formation assay was performed. To this end, Panc-1 and MIA PaCa-2 cells were treated or untreated for 72 hours with IC50 dose of myr-NLS (SEQ ID NO: 5, 8 μM and 4.5 μM respectively). Cells were then seeded at the same dilutions in new plates until colonies were formed.

[4] = system: MIA PaCa-2 cells; assay: Colony formation assay, MIA PaCa-2; format: cell-based, human; settings: 4.5 μM, 72 hours, FIG. 8
Experimental: as §3, §4

[5] = system: DLD-1 cells; assay: Colony formation assay, DLD-1; format: cell-based, human; settings: 20 μM, 72 hours, FIG. 12
Experimental: as §3
In addition, a colony formation assay was conducted to further examine the anti-tumor effect of the myr-NLS (SEQ ID NO: 5), myr-NLS2 (SEQ ID NO: 15) and myr-NLS4 (SEQ ID NO: 17) peptides. To this end, DLD-1 cells were treated or untreated for 72 hours with 20 μM of the myr-peptides. Cells were then seeded at the same dilutions in new plates until colonies were formed.

[6] = system: EGFR (ErbB1); assay: Western blot analysis of dissected Panc-1 tumors, EGFR; format: in vivo, human; settings: Panc-1 tumor lysates
Experimental: (§5) Pancreatic Tumor Growth in Nude Mice—The study was conducted according to the NIH Guidelines for Use and Care of Laboratory Animals and following the approval by Animal Care Committee of the Tel Aviv University. Nude CD1-Nu mice (25-30 g) housed in barrier facilities on a 12-h light/dark cycle one week prior to the injection of tumor cells (day zero). On day zero, 2×10^6 Panc 1 cells in 0.1 ml of PBS were implanted subcutaneously just above the right femoral joint. Tumor size was measured every 3-4 days. When the tumors were apparently seen and the calculated tumor size was 40 mm^3, the animals were divided randomly into two groups of mice (control vehicle treated and myr-NLS (SEQ ID NO: 5) treated; 8 mice per group). Treatment with the myr-NLS (SEQ ID NO: 5) was performed by intraperitoneal injection of 25 μg in 100 μl PBS (or 100 μl PBS for control mice) every day. Tumors size was measured 3 times a week. At the end of the experiment, the mice were sacrificed, and the tumors were dissected and used for further analysis.
Western blot analysis—Half of each tumor was homogenized in lysis buffer, using a Potter-Elvehjem manual homogenizer, cleared and kept at −70° C. The lysates (30 μg) were resolved by SDS-polyacrylamide gel electrophoresis (SDS-PAGE) and transferred to nitrocellulose membranes. The membranes were blocked with TBST buffer containing 6% milk and reacted with the indicated primary antibodies followed by second antibodies. Immunoreactive bands were detected with the enhanced chemiluminescence reagent (Luminata Crescendo Western HRP). Densitometric quantification analysis of the resulted images was done using ImageJ program.
Following, the present inventors examined whether the reduction of the tumor growth rate correlates with alterations expression and activation of the relevant proteins. To this end, lysates were prepared form the dissected tumors for protein levels evaluations. The tumor lysates were processed for western blot analysis (30 μg protein, 10% SDS polyacrylamide gel electrophoresis) and protein levels were determined using the indicated antibodies.

[7] = biological target: nucleolin (Homo sapiens, UniProt P19338); assay: Western blot analysis of dissected Panc-1 tumors, nucleolin; format: in vivo; set-up: endogenous in cells; host or cells: Panc-1; settings: Panc-1 tumor lysates; FIGS. 10A-C
Experimental: as §5
Western blot analysis—Half of each tumor was homogenized in lysis buffer, using a Potter-Elvehjem manual homogenizer, cleared and kept at −70° C. […] Immunoreactive bands were detected with the enhanced chemiluminescence reagent (Luminata Crescendo Western HRP). Densitometric quantification analysis of the resulted images was done using ImageJ program. […]

nucleolin, sequence (P19338 whole entry): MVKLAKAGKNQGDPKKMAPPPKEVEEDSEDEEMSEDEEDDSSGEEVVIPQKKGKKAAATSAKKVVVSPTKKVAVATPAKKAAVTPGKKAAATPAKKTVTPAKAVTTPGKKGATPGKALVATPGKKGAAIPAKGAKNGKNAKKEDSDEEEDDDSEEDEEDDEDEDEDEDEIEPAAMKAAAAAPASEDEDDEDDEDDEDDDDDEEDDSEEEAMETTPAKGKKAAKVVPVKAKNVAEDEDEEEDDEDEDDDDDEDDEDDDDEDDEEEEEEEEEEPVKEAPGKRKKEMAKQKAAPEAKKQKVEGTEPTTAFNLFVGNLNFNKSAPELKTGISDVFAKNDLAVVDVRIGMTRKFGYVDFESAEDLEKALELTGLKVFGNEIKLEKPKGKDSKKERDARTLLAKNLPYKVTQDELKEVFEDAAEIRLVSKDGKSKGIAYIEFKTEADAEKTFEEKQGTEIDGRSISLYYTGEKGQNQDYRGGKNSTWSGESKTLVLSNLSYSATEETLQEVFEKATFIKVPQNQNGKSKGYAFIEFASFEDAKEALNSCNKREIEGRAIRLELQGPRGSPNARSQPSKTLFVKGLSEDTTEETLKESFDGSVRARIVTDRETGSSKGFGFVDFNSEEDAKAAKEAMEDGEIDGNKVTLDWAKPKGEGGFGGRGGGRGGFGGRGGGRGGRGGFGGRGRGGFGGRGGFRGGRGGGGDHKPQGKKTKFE

## Myr-RRRHIVRKRTLRRLL-OH (Myristoyl-RRRHIVRKRTLRRLL-OH; SMILES CCCCCCCCCCCCCC(=O)N[C@@H](CCCNC(=N)N)C(=O)N[C@@H](CCCNC(=N)N)C(=O)N[C@@H](CCCNC(=N)N)C(=O)N[C@@H](Cc1c[nH]cn1)C(=O)N[C@H](C(=O)N[C@H](C(=O)N[C@@H](CCCNC(=N)N)C(=O)N[C@@H](CCCCN)C(=O)N[C@@H](CCCNC(=N)N)C(=O)N[C@H](C(=O)N[C@@H](CC(C)C)C(=O)N[C@@H](CCCNC(=N)N)C(=O)N[C@@H](CCCNC(=N)N)C(=O)N[C@@H](CC(C)C)C(=O)N[C@@H](CC(C)C)C(=O)O)[C@@H](C)O)C(C)C)[C@@H](C)CC) [myr-NLS]
[1]
  IC50: 7.6 µM
[2]
  viability of non-transformed Rat-1 cells: had no effect
[3]
  colony formation (total colonies area): fewer and smaller colonies
[4]
  colony formation (total colonies area): fewer and smaller colonies
[5]
  colony formation (total colonies area): fewer and smaller colonies
[6]; FIG. 10C
  ratio between EGFR and its phosphorylation state (activation of the EGFR): affected the activation of the EGFR
[6]; FIGS. 10A-C
  expression levels of EGFR in tumors: reduced
  levels of phosphorylated EGFR in tumors: reduced
[7]
  nucleolin levels in tumors: significant reduction
